Values after ≈ are worked out from the molar mass of the structure shown.
Key:
Type in all cases: cell-based, Mycobacterium tuberculosis
[1] = tested on: Rifampicin resistant strain derived from H37Rv Mtb, ropB mutant (S522L)
[2] = tested on: Isoniazid resistant strain ACTCC35822; test: microbe, parasite or virus in culture; conditions: for MIC: Mycobacterium tuberculosis, ACTCC35822, read-out: MIC INH res2
[3] = tested on: Fluoroquinolone resistant strain derived from H37Rv Mtb, gyrA mutant (D94N)
[4] = tested on: Isoniazid resistant strain derived from H37Rv Mtb, katG mutant (Y155*)
[5] = tested on: Rifampicin resistant strain ACTCC35838; test: microbe, parasite or virus in culture; conditions: for MIC: Mycobacterium tuberculosis, ACTCC35838, read-out: MIC RIF res2

| Molecule | MIC RIF res1 [1] | MIC [2] | MIC FQ res [3] | MIC INH res1 [4] | MIC [5] | MIC INH res2 ([2]; ACTCC35822) | MIC RIF res2 ([5]; ACTCC35838) |
| --- | --- | --- | --- | --- | --- | --- | --- |
| Cc1ccn2c(C(=O)NCc3ccc(S(F)(F)(F)(F)F)cc3)c(C)nc2c1 [Compound 13, 2,7-Dimethyl-N-(4-(pentafluoro-λ^6-sulfanyl)benzyl)imidazo[1,2-a]pyridine-3-carboxamide] | 0.079 µM (≈ 0.032 µg/mL) | 0.24 µM (≈ 0.0973 µg/mL) | 0.36 µM (≈ 0.146 µg/mL) | 0.070 µM (≈ 0.0284 µg/mL) | 0.52 µM (≈ 0.211 µg/mL) | – | – |
| Cc1ccn2c(C(=O)NCc3cccc(S(F)(F)(F)(F)F)c3)c(C)nc2c1 [Compound 14, 2,7-Dimethyl-N-(3-(pentafluoro-λ^6-sulfanyl)benzyl)imidazo[1,2-a]pyridine-3-carboxamide] | 1.3 µM (≈ 0.527 µg/mL) | 4 µM (≈ 1.62 µg/mL) | 2.5 µM (≈ 1.01 µg/mL) | 3.4 µM (≈ 1.38 µg/mL) | 0.13 µM (≈ 0.0527 µg/mL) | – | – |
| Cc1ccc2nc(C)c(C(=O)NCc3ccc(S(F)(F)(F)(F)F)cc3)n2c1 [Compound 15, 2,6-Dimethyl-N-(4-(pentafluoro-λ^6-sulfanyl)benzyl)imidazo[1,2-a]pyridine-3-carboxamide] | 0.0060 µM (≈ 0.00243 µg/mL) | 0.011 µM (≈ 0.00446 µg/mL) | 0.021 µM (≈ 0.00851 µg/mL) | 0.044 µM (≈ 0.0178 µg/mL) | 0.016 µM (≈ 0.00649 µg/mL) | – | – |
| Cc1ccc2nc(C)c(C(=O)NCc3cccc(S(F)(F)(F)(F)F)c3)n2c1 [Compound 16, 2,6-Dimethyl-N-(3-(pentafluoro-λ^6-sulfanyl)benzyl)imidazo[1,2-a]pyridine-3-carboxamide] | 0.35 µM (≈ 0.142 µg/mL) | 2.4 µM (≈ 0.973 µg/mL) | 2.7 µM (≈ 1.09 µg/mL) | 3.1 µM (≈ 1.26 µg/mL) | 7.2 µM (≈ 2.92 µg/mL) | – | – |
| CCc1nc2ccc(Cl)cn2c1C(=O)NCc1ccc(S(F)(F)(F)(F)F)cc1 [Compound 17, 6-Chloro-2-ethyl-N-(4-(pentafluoro-λ^6-sulfanyl)benzyl)imidazo[1,2-a]pyridine-3-carboxamide] | 0.0089 µM (≈ 0.00391 µg/mL) | 0.021 µM (≈ 0.00924 µg/mL) | 0.083 µM (≈ 0.0365 µg/mL) | 0.051 µM (≈ 0.0224 µg/mL) | 0.022 µM (≈ 0.00968 µg/mL) | – | – |
| CCc1nc2ccc(Cl)cn2c1C(=O)NCc1cccc(S(F)(F)(F)(F)F)c1 [Compound 18, 6-Chloro-2-ethyl-N-(3-(pentafluoro-λ^6-sulfanyl)benzyl)imidazo[1,2-a]pyridine-3-carboxamide] | 1.5 µM (≈ 0.66 µg/mL) | 2.7 µM (≈ 1.19 µg/mL) | 2.9 µM (≈ 1.28 µg/mL) | 2.9 µM (≈ 1.28 µg/mL) | 0.5 µM (≈ 0.22 µg/mL) | – | – |
| Cc1cn2c(C(=O)NCc3ccc(S(F)(F)(F)(F)F)cc3)c(C)nc2s1 [Compound 19, 2,6-Dimethyl-N-(4-(pentafluoro-λ^6-sulfanyl)benzyl)imidazo[2,1-b]thiazole-5-carboxamide] | 0.26 µM (≈ 0.107 µg/mL) | 0.39 µM (≈ 0.16 µg/mL) | 0.33 µM (≈ 0.136 µg/mL) | 0.60 µM (≈ 0.247 µg/mL) | 0.64 µM (≈ 0.263 µg/mL) | – | – |
| NNC(=O)c1ccncc1 [INH, Isoniazid, reference compound] | 0.160 µM (≈ 0.0219 µg/mL) | > 200 µM | 0.34 µM (≈ 0.0466 µg/mL) | >200 µM | 0.37 µM (≈ 0.0507 µg/mL) | – | – |
| CO[C@H]1/C=C/O[C@@]2(C)Oc3c(C)c(O)c4c(O)c(c(/C=N/N5CCN(C)CC5)c(O)c4c3C2=O)NC(=O)/C(C)=C\C=C\[C@H](C)[C@H](O)[C@@H](C)[C@@H](O)[C@@H](C)[C@H](OC(C)=O)[C@@H]1C [RIF, Rifampicin, reference compound] | 3.2 µM (≈ 2.63 µg/mL) | 0.013 µM (≈ 0.0107 µg/mL) | 0.043 µM (≈ 0.0354 µg/mL) | 0.027 µM (≈ 0.0222 µg/mL) | > 50 µM | – | – |
| Levoflaxacin [reference compound] | 3.43 µM | – | 91 µM | 3.97 µM | – | 5.83 µM | 3.83 µM |
